Laboratory results taken from patent US8093273B2, “Flavanoids and isoflavanoids for the prevention and treatment of cardiovascular diseases” (Resverlogix Corp., priority 2004, dated 2012).

What was measured:
[1] = following oral administration; Gugler et al. 1975; cited from earlier work
human ApoA-I promoter [2] = experiment: ApoA-I promoter induction in Caco-2 intestinal cells (pAI.474-Luc luciferase reporter); type: cell-based; details: Caco-2 cells, 15 μM, 48 hours incubation, luciferase activity vs control samples
In short: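 Caco-2 cells stably carrying the human ApoA-I promoter–firefly luciferase construct (pAI.474-Luc) were starved 24 h in 0.5% FBS medium, then exposed to compound at 0 to 100 μM final for 48 h at 37° C. Luciferase activity in lysates was normalized to Bradford protein and compared with solvent-only and untreated controls.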

Caco-2 permeability = type: in vitro ADME, human; details: human; in vitro Caco-2 intestinal transport model; read-out: % Transported Paap
Text: (§1) The Caco-2 cell drug transport model is widely used for screening compounds in drug discovery to assess intestinal transport and predict absorption rates.

Caco-2 cells = experiment: Caco-2 permeability; type: in vitro ADME, human; details: in vitro Caco-2 intestinal transport model
Text: as §1

human ApoA-I promoter [3] = details: Caco-2 cells, reported by Wong (US 20040033480); cited from earlier work
human ApoA-I promoter [4] = details: Caco-2 cells, reported by Wong; cited from earlier work

Row | Papp (Caco-2 permeability) | % Transported Paap (Caco-2 cells) | Structure (SMILES) | intestinal absorption [1] | ApoA-I Promoter Induction (human ApoA-I promoter [2]) | increase of ApoA-I promoter activity over untreated control (human ApoA-I promoter [3]) | exposure time of maximal stimulation of ApoA-I promoter activity (human ApoA-I promoter [4])
1 | – | – | O=c1c(O)c(-c2ccc(O)c(O)c2)oc2cc(O)cc(O)c12 [quercetin] | less than 1% | – | – | –
2 | 3.34 ×10⁻⁶ cm/s | 3.34e-06 cm/s | Oc1ccc(/C=C/c2cc(O)cc(O)c2)cc1 [Resveratrol, resveratrol, reference compound] | – | increased | 2.5 times | 16 h
